Results as given in the CheMixHub viscosity set.
Several values for one entry are separate records, joined by “and”; a condition that tells them apart may be missing. Identical values can stand only once.

Columns and labels:
[1] = xn = mol fraction of the nth substance listed; conditions: 101 kPa

CC(=O)O.OCCNCCO
viscosity [mPa·s]
Conditions | 293.15 K | 298.15 K | 303.15 K | 308.15 K | 313.15 K | 318.15 K | 323.15 K
100 kPa | 5750 | – | 2248 | – | 1003 | – | 491.7
101.3 kPa | 2115 | 1363 | 905.4 | 617.3 | 431.4 | 308.3 | 225

CC(=O)OCCC(C)C
viscosity
Conditions | 293.15 K | 303.15 K | 313.15 K
101 kPa | 0.86 mPa·s | 0.743 mPa·s and 0.7175 mPa·s and 0.7168 mPa·s | 0.642 mPa·s
101.3 kPa | – | 0.6997 mPa·s | –

CC(C)COCCO
Conditions | viscosity [mPa·s]
298.15 K, 101 kPa | 3.33

CCC(=O)O.CCC(=O)[O-].CC[NH+](CC)CCO
101 kPa
Conditions | viscosity [mPa·s]
293.15 K | 88.32
298.15 K | 66.16
303.15 K | 50.6
308.15 K | 39.4
313.15 K | 31.21
318.15 K | 25.1
323.15 K | 20.46

CCCC(=O)[O-].[NH3+]CCO
101 kPa
Conditions | viscosity [mPa·s]
293.15 K | 3077
298.15 K | 2071
303.15 K | 1434
308.15 K | 1011
313.15 K | 733.5
318.15 K | 539.6
323.15 K | 397.8

CCCCCCCC/C=C\CCCCCCCC(=O)OCC
viscosity
Conditions | 293.15 K | 298.15 K | 303.15 K | 308.15 K | 313.15 K | 318.15 K | 323.15 K
100 kPa | 6.414 mPa·s | 5.653 mPa·s | 4.986 mPa·s | 4.435 mPa·s and 4.424 mPa·s | 3.919 mPa·s | 3.554 mPa·s | 3.214 mPa·s
101 kPa | 6.413 mPa·s | 5.653 mPa·s | 4.986 mPa·s | 4.424 mPa·s | 3.918 mPa·s | 3.554 mPa·s | 3.214 mPa·s

CCCCCCCCCCCCn1cc[n+](C)c1.O=S(=O)([N-]S(=O)(=O)C(F)(F)F)C(F)(F)F
100 kPa
Conditions | viscosity
298 K | 135.9 mPa·s and 150.3 mPa·s
303 K | 102.5 mPa·s and 114.4 mPa·s
308 K | 79.3 mPa·s and 88.7 mPa·s
313 K | 62.31 mPa·s and 70.09 mPa·s
318 K | 49.81 mPa·s and 56.18 mPa·s
323 K | 39.98 mPa·s and 45.26 mPa·s

CCCCn1cc[n+](C)c1C.O=S(=O)([N-]S(=O)(=O)C(F)(F)F)C(F)(F)F
101.3 kPa
Conditions | viscosity [mPa·s]
293.15 K | 132.9
303.15 K | 78.56
308.15 K | 62.2
313.15 K | 50.15
318.15 K | 41.04
323.15 K | 34.04

CCCOCC(C)OCC(C)O (stereo not drawn)
101.33 kPa
Conditions | viscosity [mPa·s]
298.15 K | 4.001
308.15 K | 2.986
318.15 K | 2.271

CCOP(=O)([O-])OCC.CC[N+]1(C)CCCC1
100 kPa
Conditions | viscosity [mPa·s]
293.15 K | 440.8
298.15 K | 306.8
303.15 K | 220
308.15 K | 164.1
313.15 K | 121.4
318.15 K | 92.72
323.15 K | 72.98

CCOP(OCC)OCC
Conditions | viscosity [mPa·s]
298.15 K, 101 kPa | 0.698

CN(C)CCCN
viscosity
Conditions | 293.15 K | 303.15 K | 308.15 K | 313.15 K | 318.15 K | 323.15 K
100 kPa | 1.079 mPa·s | 0.8997 mPa·s | – | 0.7611 mPa·s | – | 0.6553 mPa·s
101 kPa | – | 0.941 mPa·s | 0.8773 mPa·s and 0.862 mPa·s | 0.8098 mPa·s and 0.793 mPa·s | 0.7531 mPa·s and 0.731 mPa·s | 0.7013 mPa·s and 0.678 mPa·s

O=C(O)C1CCCCC1
101 kPa
Conditions | viscosity [mPa·s]
310 K | 13.2
320 K | 9.26

C=C(C)C(=O)OCc1ccccc1 + O=C1CCCCC1
viscosity [mPa·s], [1]
Conditions | x2 = 0.1 | x2 = 0.1999 | x2 = 0.3 | x2 = 0.3999 | x2 = 0.5 | x2 = 0.6 | x2 = 0.7 | x2 = 0.8 | x2 = 0.9
298.15 K | 2.208 | 2.141 | 2.079 | 2.038 | 2.002 | 1.972 | 1.95 | 1.943 | 1.934
308.15 K | 1.816 | 1.765 | 1.718 | 1.687 | 1.656 | 1.632 | 1.617 | 1.602 | 1.589
318.15 K | 1.519 | 1.484 | 1.447 | 1.422 | 1.398 | 1.383 | 1.369 | 1.356 | 1.348

CC(=O)OCCC(C)C + O=[N+]([O-])c1ccccc1
viscosity [mPa·s], [1]
Conditions | 298.15 K | 308.15 K
x1 = 0.0448 | 1.721 | 1.488
x1 = 0.1512 | 1.567 | 1.367
x1 = 0.249 | 1.439 | 1.267
x1 = 0.3494 | 1.321 | 1.174
x1 = 0.4412 | 1.222 | 1.096
x1 = 0.5 | 1.164 | 1.05
x1 = 0.5486 | 1.118 | 1.014
x1 = 0.6489 | 1.03 | 0.945
x1 = 0.7486 | 0.951 | 0.882
x1 = 0.8513 | 0.876 | 0.823
x1 = 0.9464 | 0.814 | 0.773

CC(=O)OCCC(C)C + c1ccccc1
viscosity [mPa·s], [1]
Conditions | 298.15 K | 308.15 K
x1 = 0.0442 | 0.606 | 0.532
x1 = 0.1509 | 0.614 | 0.547
x1 = 0.2507 | 0.623 | 0.563
x1 = 0.3514 | 0.635 | 0.58
x1 = 0.4526 | 0.65 | 0.6
x1 = 0.4814 | 0.655 | 0.606
x1 = 0.5508 | 0.667 | 0.621
x1 = 0.6491 | 0.686 | 0.644
x1 = 0.7484 | 0.709 | 0.67
x1 = 0.8475 | 0.735 | 0.698
x1 = 0.9443 | 0.763 | 0.728

CCOP(OCC)OCC + c1ccncc1
[1], 298.15 K
Conditions | viscosity [mPa·s]
x1 = 0.2 | 0.792
x1 = 0.4 | 0.76
x1 = 0.6 | 0.738
x1 = 0.8 | 0.707
